The source of these data is US20070270421A1, “Novel pyridine Derivative and Pyrimidine Derivative (1)” (priority 2004, published 2007).

T1 sequence (P08581 956-1390 limits assumed): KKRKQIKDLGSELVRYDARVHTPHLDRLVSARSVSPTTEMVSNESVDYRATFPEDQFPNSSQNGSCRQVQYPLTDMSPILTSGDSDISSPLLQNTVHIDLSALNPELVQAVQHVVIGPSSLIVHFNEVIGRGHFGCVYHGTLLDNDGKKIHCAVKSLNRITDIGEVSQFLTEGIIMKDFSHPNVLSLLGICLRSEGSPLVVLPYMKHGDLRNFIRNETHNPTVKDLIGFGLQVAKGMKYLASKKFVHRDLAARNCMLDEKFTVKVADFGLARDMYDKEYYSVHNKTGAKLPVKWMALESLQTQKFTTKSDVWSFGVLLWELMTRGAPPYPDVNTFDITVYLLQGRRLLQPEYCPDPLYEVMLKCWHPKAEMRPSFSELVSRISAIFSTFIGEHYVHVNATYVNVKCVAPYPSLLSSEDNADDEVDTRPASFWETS

The assay addresses T1, HGFR (His6-HGFR cytoplasmic domain) (Homo sapiens, UniProt P08581).
T1 construct: made in house; host or cells: Spodoptera frugiperda Sf9 insect cells (baculovirus, pFastBac-HT)
The assay can be described thus: Inhibitory activity against HGFR tyrosine kinase activity (HTRF). The format is biochemical. To be noted: biotin-poly(GT), ATP, 30° C. 10 min, read-out: IC50 (concentration necessary to inhibit HGFR kinase activity by 50%). Summed up: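 Baculovirus/Sf9-expressed N-terminal His6-tagged HGFR cytoplasmic domain (from Lys974), Ni-NTA purified, phosphorylated biotin-poly(GT) in Hepes pH 7.4 with MgCl2/MnCl2. ATP added as 4 μM solution; 10 min at 30° C., stopped with EDTA. Phosphotyrosine product detected by HTRF.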
(In TR-FRET formats the signal depends on donor and acceptor labels being close together.)
As to `CN(C)CCN1CCN(C(=O)Nc2cc(Oc3ccc(NC(=S)NC(=O)Cc4ccccc4)cc3F)ccn2)CC1` [Example 309, 2-{[4-(2-Dimethylaminoethyl)piperazin-1-yl]carbonylamino}-4-(2-fluoro-4-{3-[2-(phenyl)acetyl]thioureido}phenoxy)pyridine], the IC50 came to 54 nM.

Take `CN(C)CC1CCN(C(=O)Nc2cc(Oc3ccc(NC(=S)NC(=O)Cc4ccccc4)cc3F)ccn2)CC1` [Example 311, 2-{[4-(Dimethylaminomethyl)piperidin-1-yl]carbonylamino}-4-(2-fluoro-4-{3-[2-(phenyl)acetyl]thioureido}phenoxy)pyridine]: the IC50 amounted to 48 nM.

Take `CN1CCC[C@@H](N(C)C(=O)Nc2cc(Oc3ccc(NC(=S)NC(=O)Cc4ccc(F)cc4)cc3F)ncn2)C1` [Example 312, 3-[6-(2-Fluoro-4-{3-[2-(4-fluorophenyl)acetyl]thioureido}phenoxy)pyrimidin-4-yl]-1-methyl-1-[(3R)-1-methylpiperidin-3-yl]urea]: the IC50 was determined as 48 nM.

Consider `CC(=O)N1CCC(N(C)C(=O)Nc2cc(Oc3ccc(NC(=S)NC(=O)Cc4ccc(F)cc4)cc3F)ncn2)CC1` [Example 314, 1-(1-Acetylpiperidin-4-yl)-3-[6-(2-fluoro-4-{3-[2-(4-fluorophenyl)acetyl]thioureido}phenoxy)pyrimidin-4-yl]-1-methylurea], for which the IC50 came to 31 nM.

On to `CN1CCC[C@H](N(C)C(=O)Nc2cc(Oc3ccc(NC(=S)NC(=O)Cc4ccc(F)cc4)cc3F)ncn2)C1` [Example 322, 3-[6-(2-Fluoro-4-{3-[2-(4-fluorophenyl)acetyl]thioureido}phenoxy)pyrimidin-4-yl]-1-methyl-1-[(3S)-1-methylpiperidin-3-yl]urea], for which the IC50 turned out to be 43 nM.

As to `CN1CCC(N2CCN(C(=O)Nc3cc(Oc4ccc(NC(=S)NC(=O)Cc5ccccc5)cc4F)ccn3)CC2)CC1` [Example 326, 4-{2-Fluoro-4-[3-(2-phenylacetyl)thioureido]phenoxy}-2-{[4-(1-methylpiperidin-4-yl)piperazin-1-yl]carbonylamino}pyridine], the IC50 amounted to 130 nM.

Turning to `CN(C)CCN1CCN(C(=O)Nc2cc(Oc3ccc(NC(=S)NC(=O)Cc4ccc(F)cc4)cc3)ccn2)CC1` [Example 327, 2-{[4-(2-Dimethylaminoethyl)piperazin-1-yl]carbonylamino}-4-(4-{3-[2-(4-fluorophenyl)acetyl]thioureido}phenoxy)pyridine], the IC50 was 75 nM.

With `CN1CCC(N2CCN(C(=O)Nc3cc(Oc4ccc(NC(=S)NC(=O)Cc5ccc(F)cc5)cc4)ccn3)CC2)CC1` [Example 329, 4-(4-{3-[2-(4-Fluorophenyl)acetyl]thioureido}phenoxy)-2-{[4-(1-methylpiperidin-4-yl)piperazin-1-yl]carbonylamino}pyridine], the IC50 was 64 nM.

`CN1CC(N2CCC(N(C)C(=O)Nc3cc(Oc4ccc(NC(=S)NC(=O)Cc5ccccc5)cc4F)ccn3)CC2)C1` [Example 330, 3-{4-[2-Fluoro-4-(3-phenylacetylthioureido)phenoxy]pyridin-2-yl}-1-methyl-1-[1-(1-methylazetidin-3-yl)piperidin-4-yl]urea]: the IC50 stood at 50 nM.

For `CN1CC(N2CCC(N(C)C(=O)Nc3cc(Oc4ccc(NC(=S)NC(=O)Cc5ccc(F)cc5)cc4)ccn3)CC2)C1` [Example 331, 3-(4-{4-[3-(4-Fluorophenyl)acetylthioureido]phenoxy}pyridin-2-yl)-1-methyl-1-[1-(1-methylazetidin-3-yl)piperidin-4-yl]urea], the IC50 was determined as 84 nM.

As to `CN(C)CCN1CCCN(C(=O)Nc2cc(Oc3ccc(NC(=S)NC(=O)Cc4ccccc4)cc3F)ccn2)CC1` [Example 334, 4-(2-Dimethylaminoethyl)-[1,4]diazepane-1-carboxylic acid {4-[2-fluoro-4-(3-phenylacetylthioureido)phenoxy]pyridin-2-yl}amide], the IC50 turned out to be 120 nM.

Turning to `CN(C)C[C@@H]1CCCN(C(=O)Nc2cc(Oc3ccc(NC(=S)NC(=O)Cc4ccccc4)cc3F)ccn2)C1` [Example 335, (3S)-3-Dimethylaminomethylpiperidine-1-carboxylic acid {4-[2-fluoro-4-(3-phenylacetylthioureido)phenoxy]pyridin-2-yl}amide], the IC50 was 110 nM.

Regarding `CN1CC(N2CCN(C(=O)Nc3cc(Oc4ccc(NC(=S)NC(=O)Cc5ccc(F)cc5)cc4)ccn3)CC2)C1` [Example 337, 4-(1-Methylazetidin-3-yl)piperazine-1-carboxylic acid [4-(4-{3-[2-(4-fluorophenyl)acetyl]thioureido}phenoxy)pyridin-2-yl]amide], the IC50 was found to be 150 nM.

In the case of `O=C(Cc1ccc(F)cc1)NC(=S)Nc1ccc(Oc2cc(NC(=O)N3CCN(CCN4CCCC4)CC3)ncn2)c(F)c1` [Example 339, 4-(2-Pyrrolidin-1-ylethyl)piperazine-1-carboxylic acid [6-(2-fluoro-4-{3-[2-(4-fluorophenyl)acetyl]thioureido}phenoxy)pyrimidin-4-yl]amide], the IC50 came to 130 nM.

Take `CN1CCN(C2CCN(C(=O)Nc3cc(Oc4ccc(NC(=O)NC(=O)Cc5ccccc5)cc4F)ccn3)CC2)CC1` [Example 340, 4-{2-Fluoro-4-[3-(2-phenylacetyl)ureido]phenoxy}-2-{[4-(1-methylpiperazin-4-yl)piperidin-1-yl]carbonylamino}pyridine]: the IC50 stood at 77 nM.

Take `CN1CCC(N2CCN(C(=O)Nc3cc(Oc4ccc(NC(=O)NC(=O)Cc5ccccc5)cc4F)ccn3)CC2)CC1` [Example 341, 4-{2-Fluoro-4-[3-(2-phenylacetyl)ureido]phenoxy}-2-{[4-(1-methylpiperidin-4-yl)piperazin-1-yl]carbonylamino}pyridine]: the IC50 was 100 nM.

Regarding `CN(C)CC1CCN(C(=O)Nc2cc(Oc3ccc(NC(=O)NC(=O)Cc4ccccc4)cc3F)ccn2)CC1` [Example 342, 2-{[4-(Dimethylaminomethyl)piperidin-1-yl]carbonylamino}-4-{2-fluoro-4-[3-(2-phenylacetyl)ureido]phenoxy}pyridine], the IC50 is 59 nM.

`CN1CCN(C2CCN(C(=O)Nc3cc(Oc4ccc(NC(=O)NC(=O)Cc5ccc(F)cc5)cc4F)ccn3)CC2)CC1` [Example 343, 4-(2-Fluoro-4-{3-[2-(4-fluorophenyl)acetyl]ureido}phenoxy)-2-{[4-(1-methylpiperazin-4-yl)piperidin-1-yl]carbonylamino}pyridine]: the IC50 amounted to 120 nM.

`CN1CCN(C2CCN(C(=O)Nc3cc(Oc4ccc(NC(=O)NC(=O)Cc5ccc(F)cc5)cc4)ccn3)CC2)CC1` [Example 344, 4-(4-{3-[2-(4-Fluorophenyl)acetyl]ureido}phenoxy)-2-{[4-(1-methylpiperazin-4-yl)piperidin-1-yl]carbonylamino}pyridine]: the IC50 came out at 110 nM.

`CN1CCC(N2CCN(C(=O)Nc3cc(Oc4ccc(NC(=O)NC(=O)Cc5ccc(F)cc5)cc4F)ccn3)CC2)CC1` [Example 345, 4-(2-Fluoro-4-{3-[2-(4-fluorophenyl)acetyl]ureido}phenoxy)-2-{[4-(1-methylpiperidin-4-yl)piperazin-1-yl]carbonylamino}pyridine]: the IC50 was determined as 120 nM.

With `CN1CCC(N2CCN(C(=O)Nc3cc(Oc4ccc(NC(=O)NC(=O)Cc5ccc(F)cc5)cc4)ccn3)CC2)CC1` [Example 346, 4-(4-{3-[2-(4-Fluorophenyl)acetyl]ureido}phenoxy)-2-{[4-(1-methylpiperidin-4-yl)piperazin-1-yl]carbonylamino}pyridine], the IC50 came to 100 nM.
